Results taken from ChEMBL document CHEMBL6083249, “The journey of p38 MAP kinase inhibitors: From bench to bedside in treating inflammatory diseases” (Eur J Med Chem, 2024).
Blank lines part the entries; values can stand above or below the compound they belong to.

Columns and labels:
[1] = Volume of distribution at steady state in Sprague-Dawley rat at 10 mg/kg, iv measured for 24 hrs by LC-MS/MS analysis; format: ADME, organism-based; conditions: in vivo, read-out: Vdss
[2] = Cmax in Wistar rat at 10 mg/kg, po by LC-MS/MS analysis; format: ADME, organism-based; conditions: in vivo
THP-1 [3] = assay: Anti-inflammatory activity in human THP-1 cells assessed as inhibition of IL-1beta protein expression incubated for 24 hrs by Western blot analysis; format: functional, cell-based; conditions: THP-1, 24 h
RAW264.7 = assay: Anti-inflammatory activity in LPS-induced mouse RAW264.7 cells assessed as inhibition of IL-6 production; format: functional, cell-based
[4] = Clearance in Sprague-Dawley rat at 10 mg/kg, iv by HPLC-MS analysis; format: ADME, organism-based; conditions: in vivo
[5] = Tmax in Wistar rat at 10 mg/kg, po by LC-MS/MS analysis; format: ADME, organism-based; conditions: in vivo
THP-1 [6] = assay: Antiinflammatory activity against human THP-1 cells assessed as inhibition of LPS-induced TNF-alpha production; format: functional, cell-based
[7] = Oral bioavailability in Sprague-Dawley rat at 10 mg/kg by LC-MS analysis; format: ADME, organism-based; conditions: in vivo
[8] = AUC in Sprague-Dawley rat at 10 mg/kg, po measured for 24 hrs by LC-MS/MS analysis; format: ADME, organism-based; conditions: in vivo
[9] = Half life in Sprague-Dawley rat at 10 mg/kg, po by LC-MS analysis; format: ADME, organism-based; conditions: in vivo
[10] = Volume of distribution at steady state in ICR mouse at 2 mg/kg, iv; format: ADME, organism-based; conditions: in vivo, read-out: Vdss
[11] = Volume of distribution at steady state in Wistar rat at 3 mg/kg, iv; format: ADME, organism-based; conditions: in vivo, read-out: Vdss
[12] = Cmax in ICR mouse at 5 mg/kg, iv by LC-MS/MS analysis; format: ADME, organism-based; conditions: in vivo
[13] = Clearance in ICR mouse at 2 mg/kg, iv; format: ADME, organism-based; conditions: in vivo
[14] = Oral bioavailability in ICR mouse; format: ADME, organism-based; conditions: in vivo
[15] = Clearance in Wistar rat at 3 mg/kg, iv; format: ADME, organism-based; conditions: in vivo
[16] = Tmax in ICR mouse at 5 mg/kg, iv; format: ADME, organism-based; conditions: in vivo
[17] = Cmax in Wistar rat at 3 mg/kg, iv; format: ADME, organism-based; conditions: in vivo
[18] = Oral bioavailability in rat; format: ADME, organism-based; conditions: in vivo
[19] = MRT in ICR mouse at 5 mg/kg, iv by LC-MS/MS analysis; format: ADME, organism-based; conditions: in vivo
[20] = Oral bioavailability in ICR mouse at […] by LC-MS/MS analysis; format: ADME, organism-based; conditions: in vivo, dose 0.25 mg/kg
[21] = AUC in rat at 30 mg/kg, po; format: ADME, organism-based; conditions: in vivo
[22] = target: Serine/threonine-protein kinase Sgk1 (Homo sapiens) (UniProt O00141); assay: Inhibition of SGK1 (unknown origin) at 1 uM by Z'LYTE kinase assay relative to control; conditions: values are per cent of control
Chain of Serine/threonine-protein kinase Sgk1 (Homo sapiens) (O00141 whole entry): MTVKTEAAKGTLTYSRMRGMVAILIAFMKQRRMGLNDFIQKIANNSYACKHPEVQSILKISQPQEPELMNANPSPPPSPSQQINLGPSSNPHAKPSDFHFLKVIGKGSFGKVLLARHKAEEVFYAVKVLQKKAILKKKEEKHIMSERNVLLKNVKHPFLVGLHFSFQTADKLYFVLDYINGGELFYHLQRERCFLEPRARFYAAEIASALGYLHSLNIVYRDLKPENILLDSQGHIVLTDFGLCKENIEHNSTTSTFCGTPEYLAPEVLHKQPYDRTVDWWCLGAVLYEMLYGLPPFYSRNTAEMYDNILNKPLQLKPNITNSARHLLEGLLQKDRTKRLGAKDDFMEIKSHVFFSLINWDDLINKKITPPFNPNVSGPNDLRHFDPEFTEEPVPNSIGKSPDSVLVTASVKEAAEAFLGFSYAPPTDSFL

[23] = target: Mitogen-activated protein kinase 8 (Homo sapiens) (UniProt P45983); assay: Inhibition of JNK1alpha1 (unknown origin) at 1 uM relative to control; conditions: values are per cent of control
Chain of Mitogen-activated protein kinase 8 (Homo sapiens) (P45983 whole entry): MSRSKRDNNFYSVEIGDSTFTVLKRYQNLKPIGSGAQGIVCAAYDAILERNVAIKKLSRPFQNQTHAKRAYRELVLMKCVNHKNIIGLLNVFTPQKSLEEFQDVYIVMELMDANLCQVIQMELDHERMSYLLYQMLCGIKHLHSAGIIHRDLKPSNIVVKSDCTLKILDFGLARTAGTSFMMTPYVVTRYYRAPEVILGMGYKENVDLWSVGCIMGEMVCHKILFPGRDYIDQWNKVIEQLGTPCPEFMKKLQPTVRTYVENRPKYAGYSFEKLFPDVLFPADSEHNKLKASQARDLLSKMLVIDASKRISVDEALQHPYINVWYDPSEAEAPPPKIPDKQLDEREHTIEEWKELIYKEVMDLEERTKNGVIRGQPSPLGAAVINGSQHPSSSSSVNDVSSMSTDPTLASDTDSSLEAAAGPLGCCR

[24] = target: MAP kinase-activated protein kinase 5 (Homo sapiens) (UniProt Q8IW41); assay: Inhibition of PRAK (unknown origin) at 1 uM relative to control; conditions: values are per cent of control
Chain of MAP kinase-activated protein kinase 5 (Homo sapiens) (Q8IW41 whole entry): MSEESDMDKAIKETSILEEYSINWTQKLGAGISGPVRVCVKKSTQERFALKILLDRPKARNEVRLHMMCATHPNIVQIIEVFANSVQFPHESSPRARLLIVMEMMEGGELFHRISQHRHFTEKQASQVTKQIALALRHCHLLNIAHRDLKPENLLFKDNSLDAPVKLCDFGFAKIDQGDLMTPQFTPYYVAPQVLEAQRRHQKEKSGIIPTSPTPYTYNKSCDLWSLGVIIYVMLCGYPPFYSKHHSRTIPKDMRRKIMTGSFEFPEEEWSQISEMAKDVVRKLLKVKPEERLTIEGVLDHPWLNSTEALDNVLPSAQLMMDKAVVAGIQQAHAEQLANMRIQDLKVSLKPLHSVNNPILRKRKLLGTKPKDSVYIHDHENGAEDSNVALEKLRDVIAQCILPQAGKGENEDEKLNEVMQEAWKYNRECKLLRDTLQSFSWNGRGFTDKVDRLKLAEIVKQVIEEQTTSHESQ

Homo sapiens [25] = organism: Homo sapiens; assay: Inhibition of PKA (unknown origin) at 1 uM relative to control; conditions: values are per cent of control
[26] = target: Dual specificity mitogen-activated protein kinase kinase 1 (Homo sapiens) (UniProt Q02750); assay: Inhibition of MKK1 (unknown origin) at 1 uM relative to control; conditions: values are per cent of control
Chain of Dual specificity mitogen-activated protein kinase kinase 1 (Homo sapiens) (Q02750 whole entry): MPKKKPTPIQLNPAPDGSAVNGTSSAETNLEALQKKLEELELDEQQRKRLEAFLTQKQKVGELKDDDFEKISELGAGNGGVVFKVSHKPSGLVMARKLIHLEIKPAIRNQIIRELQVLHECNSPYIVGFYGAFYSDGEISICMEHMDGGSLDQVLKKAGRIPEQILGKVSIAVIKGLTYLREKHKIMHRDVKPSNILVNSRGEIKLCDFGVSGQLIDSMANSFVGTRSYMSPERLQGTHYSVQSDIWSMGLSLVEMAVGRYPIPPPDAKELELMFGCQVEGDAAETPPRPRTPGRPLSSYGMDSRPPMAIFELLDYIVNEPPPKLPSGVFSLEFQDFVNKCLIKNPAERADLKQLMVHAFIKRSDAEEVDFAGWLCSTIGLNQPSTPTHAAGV

[27] = target: Protein kinase C alpha type (Homo sapiens, UniProt P17252); assay: Inhibition of PKCalpha (unknown origin) at 1 uM in presence of ATP relative to control; conditions: values are per cent of control
[28] = target: Dual specificity tyrosine-phosphorylation-regulated kinase 1A (Homo sapiens) (UniProt Q13627); assay: Inhibition of DYRK1A (unknown origin) at 1 uM relative to control; conditions: values are per cent of control
Homo sapiens [29] = organism: Homo sapiens; assay: Inhibition of CK1 (unknown origin) at 10 uM relative to control; conditions: values are per cent of control
Homo sapiens [30] = organism: Homo sapiens; assay: Inhibition of CK1 (unknown origin) at 1 uM relative to control; conditions: values are per cent of control
[31] = target: Casein kinase 2 (Homo sapiens) (UniProt P67870+P68400+P19784+Q8NEV1); assay: Inhibition of CK2 (unknown origin) at 1 uM relative to control; format: protein assay; conditions: values are per cent of control
[32] = target: Dual specificity tyrosine-phosphorylation-regulated kinase 1A (Homo sapiens) (UniProt Q13627); assay: Inhibition of DYRK1A (unknown origin) at 10 uM relative to control; conditions: values are per cent of control
[33] = target: Mitogen-activated protein kinase 1 (Homo sapiens) (UniProt P28482); assay: Inhibition of ERK2 (unknown origin) at 1 uM relative to control; conditions: values are per cent of control
Chain of Mitogen-activated protein kinase 1 (Homo sapiens) (P28482 whole entry): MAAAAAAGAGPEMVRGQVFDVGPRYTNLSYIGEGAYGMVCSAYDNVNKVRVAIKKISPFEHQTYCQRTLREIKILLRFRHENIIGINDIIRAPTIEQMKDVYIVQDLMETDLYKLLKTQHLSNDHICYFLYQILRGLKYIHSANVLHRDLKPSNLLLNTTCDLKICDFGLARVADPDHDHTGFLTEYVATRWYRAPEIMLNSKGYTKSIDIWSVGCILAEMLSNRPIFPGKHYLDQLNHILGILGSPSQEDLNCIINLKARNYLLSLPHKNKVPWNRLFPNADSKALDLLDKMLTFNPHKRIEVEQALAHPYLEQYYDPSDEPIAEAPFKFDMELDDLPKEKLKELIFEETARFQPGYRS

[34] = target: Ribosomal protein S6 kinase beta-1 (Homo sapiens) (UniProt P23443); assay: Inhibition of S6K1 (unknown origin) at 1 uM relative to control; conditions: values are per cent of control
Chain of Ribosomal protein S6 kinase beta-1 (Homo sapiens) (P23443 whole entry, looked up): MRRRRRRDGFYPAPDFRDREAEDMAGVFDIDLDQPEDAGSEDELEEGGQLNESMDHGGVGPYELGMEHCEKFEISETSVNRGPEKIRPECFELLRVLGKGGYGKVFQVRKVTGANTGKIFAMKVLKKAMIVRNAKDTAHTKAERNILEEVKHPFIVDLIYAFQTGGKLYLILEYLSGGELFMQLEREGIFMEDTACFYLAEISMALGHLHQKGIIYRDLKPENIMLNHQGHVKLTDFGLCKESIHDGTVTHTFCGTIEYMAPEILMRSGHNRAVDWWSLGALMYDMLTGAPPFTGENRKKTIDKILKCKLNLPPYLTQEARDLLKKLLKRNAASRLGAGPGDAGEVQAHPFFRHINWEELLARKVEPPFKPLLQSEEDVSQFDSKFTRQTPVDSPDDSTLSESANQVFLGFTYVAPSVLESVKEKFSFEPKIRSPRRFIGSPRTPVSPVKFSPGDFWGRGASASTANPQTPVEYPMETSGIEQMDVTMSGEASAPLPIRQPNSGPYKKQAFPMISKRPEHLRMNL

[35] = target: Rho-associated protein kinase 2 (Homo sapiens) (UniProt O75116); assay: Inhibition of ROCK2 (unknown origin) at 1 uM relative to control; conditions: values are per cent of control
Chain of Rho-associated protein kinase 2 (Homo sapiens) (O75116 whole entry, looked up): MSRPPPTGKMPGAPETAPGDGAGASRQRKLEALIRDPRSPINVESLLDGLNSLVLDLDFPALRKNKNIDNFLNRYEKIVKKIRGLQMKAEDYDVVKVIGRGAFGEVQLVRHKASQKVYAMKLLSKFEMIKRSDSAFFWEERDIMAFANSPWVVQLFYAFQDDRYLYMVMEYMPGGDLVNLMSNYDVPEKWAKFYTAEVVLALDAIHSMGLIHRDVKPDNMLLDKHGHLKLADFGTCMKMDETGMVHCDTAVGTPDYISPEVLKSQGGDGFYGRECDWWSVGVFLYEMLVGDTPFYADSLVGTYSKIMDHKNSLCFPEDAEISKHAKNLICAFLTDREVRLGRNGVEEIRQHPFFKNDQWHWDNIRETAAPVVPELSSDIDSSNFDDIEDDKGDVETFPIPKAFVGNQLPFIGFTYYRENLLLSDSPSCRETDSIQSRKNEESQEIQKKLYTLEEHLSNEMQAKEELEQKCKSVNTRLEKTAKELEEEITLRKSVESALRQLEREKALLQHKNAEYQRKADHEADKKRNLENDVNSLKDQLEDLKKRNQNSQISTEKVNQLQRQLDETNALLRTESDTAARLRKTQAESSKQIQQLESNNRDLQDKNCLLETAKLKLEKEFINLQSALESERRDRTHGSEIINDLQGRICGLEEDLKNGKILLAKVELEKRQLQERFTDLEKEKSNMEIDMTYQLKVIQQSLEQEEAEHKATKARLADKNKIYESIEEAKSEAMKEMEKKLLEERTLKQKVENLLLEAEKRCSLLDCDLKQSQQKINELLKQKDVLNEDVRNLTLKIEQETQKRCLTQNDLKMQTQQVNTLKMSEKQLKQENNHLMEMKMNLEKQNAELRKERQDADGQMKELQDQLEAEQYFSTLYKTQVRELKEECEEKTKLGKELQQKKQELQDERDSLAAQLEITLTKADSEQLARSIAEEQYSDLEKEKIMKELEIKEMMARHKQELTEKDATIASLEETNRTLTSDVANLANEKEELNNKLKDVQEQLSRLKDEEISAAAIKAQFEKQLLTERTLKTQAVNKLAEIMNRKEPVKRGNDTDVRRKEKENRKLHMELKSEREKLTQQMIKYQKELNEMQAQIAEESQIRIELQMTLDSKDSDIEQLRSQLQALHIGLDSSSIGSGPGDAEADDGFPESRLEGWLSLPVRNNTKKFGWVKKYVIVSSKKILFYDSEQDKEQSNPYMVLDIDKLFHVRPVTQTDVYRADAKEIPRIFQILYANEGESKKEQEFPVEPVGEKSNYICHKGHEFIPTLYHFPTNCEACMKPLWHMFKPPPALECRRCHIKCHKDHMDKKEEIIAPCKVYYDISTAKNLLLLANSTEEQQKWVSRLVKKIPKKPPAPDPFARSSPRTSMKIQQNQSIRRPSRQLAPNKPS

[36] = target: Ribosomal protein S6 kinase alpha-1 (Homo sapiens) (UniProt Q15418); assay: Inhibition of RSK1 (unknown origin) at 1 uM relative to control; conditions: values are per cent of control
Chain of Ribosomal protein S6 kinase alpha-1 (Homo sapiens) (Q15418 whole entry): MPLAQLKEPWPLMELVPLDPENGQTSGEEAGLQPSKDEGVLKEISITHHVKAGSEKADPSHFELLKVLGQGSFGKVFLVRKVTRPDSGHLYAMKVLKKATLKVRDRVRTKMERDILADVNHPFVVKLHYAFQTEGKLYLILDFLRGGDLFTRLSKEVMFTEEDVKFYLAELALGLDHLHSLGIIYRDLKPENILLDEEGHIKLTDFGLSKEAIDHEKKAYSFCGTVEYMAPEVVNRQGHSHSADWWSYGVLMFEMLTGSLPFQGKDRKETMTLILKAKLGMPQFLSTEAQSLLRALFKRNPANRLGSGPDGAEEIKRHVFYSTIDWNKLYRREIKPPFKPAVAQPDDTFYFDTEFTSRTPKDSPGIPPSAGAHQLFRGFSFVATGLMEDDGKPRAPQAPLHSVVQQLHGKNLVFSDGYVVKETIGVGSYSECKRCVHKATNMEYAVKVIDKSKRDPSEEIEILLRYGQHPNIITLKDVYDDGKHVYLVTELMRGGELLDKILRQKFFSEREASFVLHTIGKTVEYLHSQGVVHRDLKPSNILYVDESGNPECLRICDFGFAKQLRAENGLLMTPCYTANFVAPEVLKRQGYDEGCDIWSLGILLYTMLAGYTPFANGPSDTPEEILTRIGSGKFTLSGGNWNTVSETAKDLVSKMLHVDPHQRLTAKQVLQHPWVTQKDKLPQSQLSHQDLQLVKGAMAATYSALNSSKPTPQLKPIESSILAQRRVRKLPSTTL

Compound: Cn1c(=O)c(Oc2ccc(F)cc2F)cc2cnc(NC3CCOCC3)nc21 [R-1487]
Vd [1]: 1.94 L/kg
Cmax [2]: 650 ng/mL
IC50 (THP-1 [3]): 170 nM
EC50 (RAW264.7): 10 nM
clearance [4]: 20.7 mL/min/kg
Tmax [5]: 2 h
IC50 (THP-1 [6]): 800 nM
bioavailability [7]: 29.3%
AUC [8]: 2.35 µg/h/mL

Compound: Cn1c(=O)c(Oc2ccc(F)cc2F)cc2cnc(NC(CCO)CCO)nc21 [PAMAPIMOD]
Vd [1]: 3.56 L/kg
Cmax [2]: 1340 ng/mL
IC50 (THP-1 [3]): 100 nM
EC50 (RAW264.7): 50 nM
clearance [4]: 21 mL/min/kg
half-life [9]: 4.04 h
Tmax [5]: 0.5 h
IC50 (THP-1 [6]): 300 nM
bioavailability [7]: 80.1%
AUC [8]: 3.13 µg/h/mL

Vd [10]: 0.9 L/kg
Vd [11]: 1.1 L/kg
Cmax [12]: 15.3 µM
clearance [13]: 4.4 mL/min/kg
bioavailability [14]: 90%
clearance [15]: 5.4 mL/min/kg
Tmax [16]: 1 h
Cmax [17]: 7 µM
bioavailability [18]: 60%
MRT [19]: 3.3 h
Compound: CCCNC(=O)c1cn2ncnc(Nc3cc(C(=O)NC4CC4)ccc3C)c2c1C [BMS-582949]

bioavailability [20]: 51%
AUC [21]: 220 ng·h/mL
Compound: Cc1c(F)cc(C(=O)NC2CC2)cc1-c1ccc(C(=O)NCC(C)(C)C)cn1 [LOSMAPIMOD]

residual activity [22]: 94%
residual activity [23]: 70%
residual activity [24]: 71%
residual activity (Homo sapiens [25]): 88%
residual activity [26]: 71%
residual activity [27]: 80%
residual activity [28]: 82%
residual activity (Homo sapiens [29]): 84%
residual activity (Homo sapiens [30]): 87%
residual activity [31]: 85%
residual activity [32]: 79%
residual activity [33]: 79%
residual activity [34]: 119%
residual activity [35]: 80%
residual activity [36]: 59%
Compound: Cc1ccc(-n2nc(C(C)(C)C)cc2NC(=O)Nc2ccc(OCCN3CCOCC3)c3ccccc23)cc1
